Source: patent publication US20250206758A1, “SUBSTITUTED BRIDGED RING INHIBITOR, PREPARATION METHOD THEREFOR AND APPLICATION THEREOF” (SUZHOU ZELGEN BIOPHARMACEUTICALS CO., LTD., priority 2022, published 2025)
Where two headings read alike, the source gives them in different places.

How the values were obtained:
AsPC-1 = test: Cell proliferation inhibition, AsPC-1 (CellTiter-Glo 3D, 7 days); assay type: cell-based; conditions: AsPC-1, 7 days
Protocol: (§1) • (a) Resuscitating cells in T75 cell culture flask: • (b) When the cell confluence reaches 80-90%, subculturing the cells.
(§2) The diluted test compound was added to a 384-well cell culture plate with a nanoliter pipetting system, and duplicate wells were set up. An equal volume of culture medium was added to the positive control group; and an equal volume of DMSO was added to the negative control group, then centrifugation was conducted at 1000 rpm for 1 min at room temperature.
(§3) Cells were inoculated into a) 384-well culture plate, with an equal volume of cells added to the negative control group, and only an equal volume of culture medium added to the positive control group. The plate was centrifuged at 1000 rpm for 1 min at room temperature, and the final DMSO concentration of the compound was 0.5% at last. The plate was placed in a 37° C., 5% CO2 constant temperature incubator for 7 days.
(§4) 20 μL/well of CellTiter-Glo® 3D to b) was added to 384-well cell culture plate, and the plate was shook at 320 rpm for 20 min in the dark, and incubated at room temperature in the dark for 2 hrs.
(§5) The luminescence value was read using an Envision multi-functional microplate reader.
(§6) The inhibition rate (IR) of the test compound was calculated using the following formula: IR (%)=(1−(RLU compound−RLU blank control)/(RLU meidum control−RLU blank control))*100%. The inhibition rates of different concentrations of compounds were calculated in Excel, and then the inhibition curves were plotted and the related parameters (including the minimum inhibition rate, maximum inhibition rate and IC50) were calculated using GraphPad Prism software.

GP2D = test: Cell proliferation inhibition, GP2D (CellTiter-Glo 3D, 7 days); assay type: cell-based
Protocol: as §1, §2, §3, §4, §5, §6

| Compound | IC50 (AsPC-1; Homo sapiens, ASPC1, 168 h) | IC50 (GP2D; 168 h) | IC50 (AsPC-1) | IC50 (GP2D) |
| --- | --- | --- | --- | --- |
| C#Cc1c(F)ccc2cc(O)cc(-c3ncc4c(N5C[C@H]6CC[C@@H](C5)N6)nc(OC[C@@]56C[C@H](F)CN5C[C@@]5(CC5(F)F)C6)nc4c3F)c12 [Example 15G, 4-(4-((1R,5S)-3,8-diazabicyclo[3.2.1]octan-3-yl)-8-fluoro-2-(((1S,6'S,7a′R)-2,2,6′-trifluorodihydro-1′H,3′H-spiro[cyclopropan-1,2′-pyrrolizin]-7a′(5′H)-yl)methoxy)pyridino[4,3-d]pyrimidin-7-yl)-5-ethynyl-6-fluoronaphthalen-2-ol] | 329 nM | 39.1 nM | – | – |
| C#Cc1c(F)ccc2cc(O)cc(-c3ncc4c(N5C[C@H]6CC[C@@H](C5)N6)nc(OC[C@@]56C[C@H](F)CN5C[C@]5(CC5(F)F)C6)nc4c3F)c12 [Example 15H, 4-(4-((1R,5S)-3,8-diazabicyclo[3.2.1]octan-3-yl)-8-fluoro-2-(((1R,6'S,7a′R)-2,2,6′-trifluorodihydro-1′H,3′H-spiro[cyclopropan-1,2′-pyrrolizin]-7a′(5′H)-yl)methoxy)pyridino[4,3-d]pyrimidin-7-yl)-5-ethynyl-6-fluoronaphthalen-2-ol] | 226 nM | 9.3 nM | – | – |
| C#Cc1c(F)ccc2cc(O)cc(-c3ncc4c(N5C[C@H]6CC[C@@H](C5)N6)nc(OC[C@]56CCCN5C[C@]5(CC5(F)F)C6)nc4c3F)c12 [Example 16B-2, 4-(4-((1R,5S)-3,8-diazabicyclo[3.2.1]octan-3-yl)-2-(((1R,7a′R)-2,2-difluorodihydro-1′H,3′H-spiro[cyclopropan-1,2′-pyrrolizin]-7a′(5′H)-yl)methoxy)-8-fluoropyridino[4,3-d]pyrimidin-7-yl)-5-ethynyl-6-fluoronaphthalen-2-ol] | 9.22 nM | 1.55 nM | – | – |
| CCc1c(F)ccc2cc(O)cc(-c3ncc4c(N5CC6CCC(C5)N6)nc(OC[C@@]56CCCN5C[C@@]5(CC5(F)F)C6)nc4c3F)c12 [Example 17A] | 1.07 nM | 0.26 nM | – | – |
| CCc1c(F)ccc2cc(O)cc(-c3ncc4c(N5CC6CCC(C5)N6)nc(OC[C@]56CCCN5C[C@]5(CC5(F)F)C6)nc4c3F)c12 [Example 17B] | 7.84 nM | 1.15 nM | – | – |
| Cc1cc(N)nc(-c2ncc3c(N4CC5CCC(C4)N5)nc(OC[C@@]45CCCN4C[C@@]4(CC4(F)F)C5)nc3c2F)c1C(F)(F)F [Example 18, 6-(4-((1R,5S)-3,8-diazabicyclo[3.2.1]octan-3-yl)-2-(((trans)-2,2-difluorodihydro-1′H,3′H-spiro[cyclopropan-1,2′-pyrrolizin]-7a′(5′H)-yl)methoxy)-8-fluoropyridino[4,3d]pyrimidin-7-yl)-4-methyl-5-(trifluoromethyl)pyridin-2-amine] | 307 nM | 9.83 nM | – | – |
| C#Cc1c(F)ccc2cc(O)cc(-c3ncc4c(N5C[C@H]6CC[C@@](C)(C5)N6)nc(OC[C@@]56CCCN5C[C@@]5(CC5(F)F)C6)nc4c3F)c12 [Example 20A, 4-(2-(((1S,7a'S)-2,2-difluorodihydro-1′H,3′H-spiro[cyclopropan-1,2′-pyrrolizin]-7a′(5′H)-yl)methoxy)-8-fluoro-4-((1S,5R)-1-methyl-3,8-diazabicyclo[3.2.1]octan-3-yl)pyridino[4,3-d]pyrimidin-7-yl)-5-ethynyl-6-fluoronaphthol-2-ol] | – | – | 4.11 nM | 0.44 nM |
| C#Cc1c(F)ccc2cc(O)cc(-c3ncc4c(N5C[C@@H]6CC[C@](C)(C5)N6)nc(OC[C@@]56CCCN5C[C@@]5(CC5(F)F)C6)nc4c3F)c12 [Example 20B, 4-(2-(((1S,7a'S)-2,2-difluorodihydro-1′H,3′H-spiro[cyclopropan-1,2′-pyrrolizin]-7a′(5′H)-yl)methoxy)-8-fluoro-4-((1R,5S)-1-methyl-3,8-diazabicyclo[3.2.1]octan-3-yl)pyridino[4,3-d]pyrimidin-7-yl)-5-ethynyl-6-fluoronaphthol-2-ol] | – | – | 4.86 nM | 0.58 nM |
| Cc1c(F)cc2[nH]ncc2c1-c1ncc2c(N3C[C@H]4CC[C@@H](C3)N4)nc(OC[C@@]34CCCN3C[C@@]3(CC3(F)F)C4)nc2c1F [Example 22, (1S,7a'S)-7a′-(((4-((1R,5S)-3,8-diazabicyclo[3.2.1]octan-3-yl)-8-fluoro-7-(6-fluoro-5-methyl-1H-indazol-4-yl)pyridino[4,3-d]pyrimidin-2-yl)oxy)methyl)-2,2-difluorodihydro-1′H,3′H-spiro[cyclopropan-1,2′-pyrrolizin]] | > 1000 nM | > 100 nM | – | – |
| Nc1nc2c(-c3ncc4c(N5C[C@H]6CC[C@@H](C5)N6)nc(OC[C@@]56CCCN5C[C@@]5(CC5(F)F)C6)nc4c3F)ccc(F)c2s1 [Example 23, 4-(4-((1R,5S)-3,8-diazabicyclo[3.2.1]octan-3-yl)-2-(((1S,7a'S)-2,2-difluorodihydro-1′H,3′H-spiro[cyclopropan-1,2′-pyrrolizin]-7a′(5′H)-yl)methoxy)-8-fluoropyridino[4,3-d]pyrimidin-7-yl)-7-fluorobenzo[d]thiazol-2-amine] | > 1000 nM | > 100 nM | – | – |
| Nc1c(Cl)cc(Cl)c(F)c1-c1ncc2c(N3C[C@H]4CC[C@@H](C3)N4)nc(OC[C@@]34CCCN3C[C@@]3(CC3(F)F)C4)nc2c1F [Example 25, 2-(4-((1R,5S)-3,8-diazabicyclo[3.2.1]octan-3-yl)-2-(((1S,7a'S)-2,2-difluorodihydro-1′H,3′H-spiro[cyclopropan-1,2′-pyrrolizin]-7a′(5′H)-yl)methoxy)-8-fluoropyridino[4,3-d]pyrimidin-7-yl)-4,6-dichloro-3-fluoroaniline] | > 1000 nM | > 100 nM | – | – |
| C#Cc1c(F)ccc2cc(O)cc(-c3ncc4c(N5CCC6CCC(C5)N6)nc(OC[C@@]56CCCN5C[C@@]5(CC5(F)F)C6)nc4c3F)c12 (stereo partly drawn) [Example 28, 4-(4-(3,9-diazabicyclo[4.2.1]nonan-3-yl)-2-(((1S,7a'S)-2,2-difluorodihydro-1′H,3′H-spiro[cyclopropan-1,2′-pyrrolizin]-7a′(5′H)-yl)methoxy)-8-fluoropyridino[4,3-d]pyrimidin-7-yl)-5-ethynyl-6-fluoronaphthalen-2-ol] | 188 nM | 19.8 nM | – | – |
| C#Cc1c(F)ccc2cc(O)cc(-c3ncc4c(N5CCCC(C)(N)C5)nc(OC[C@@]56CCCN5C[C@@]5(CC5(F)F)C6)nc4c3F)c12 (stereo partly drawn) [Example 29, 4-(4-(3-amino-3-methylpiperidin-1-yl)-2-(((1S,7a'S)-2,2-difluorodihydro-1′H,3′H-spiro[cyclopropan-1,2′-pyrrolizin]-7a′(5′H)-yl)methoxy)-8-fluoropyridino[4,3-d]pyrimidin-7-yl)-5-ethynyl-6-fluoronaphthalen-2-ol] | 180 nM | 17.7 nM | – | – |
| COc1c(-c2c(F)c(N)cc(C)c2C(F)(F)F)ncc2c(N3C[C@H]4CC[C@@H](C3)N4)nc(OC[C@@]34CCCN3C[C@@]3(CC3(F)F)C4)nc12 [Example 30, 3-(4-((1R,5S)-3,8-diazabicyclo[3.2.1]octan-3-yl)-2-(((1S,7a'S)-2,2-difluorodihydro-1′H,3′H-spiro[cyclopropan-1,2′-pyrrolizin]-7a′(5′H)-yl)methoxy)-8-methoxypyridino[4,3-d]pyrimidin-7-yl)-2-fluoro-5-methyl-4-(trifluoromethyl)aniline] | > 1000 nM | > 100 nM | – | – |
| COc1c(-c2cc(N)cc(Cl)c2C(F)(F)F)ncc2c(N3C[C@H]4CC[C@@H](C3)N4)nc(OC[C@@]34CCCN3C[C@@]3(CC3(F)F)C4)nc12 [Example 31, 3-(4-((1R,5S)-3,8-diazabicyclo[3.2.1]octan-3-yl)-2-(((1S,7a'S)-2,2-difluorodihydro-1′H,3′H-spiro[cyclopropan-1,2′-pyrrolizin]-7a′(5′H)-yl)methoxy)-8-methoxypyridino[4,3-d]pyrimidin-7-yl)-5-chloro-4-(trifluoromethyl)aniline] | 259 nM | 24.3 nM | – | – |
| N#Cc1c(N)sc2cc(F)cc(-c3ncc4c(N5C[C@H]6CC[C@@H](C5)N6)nc(OC[C@@]56CCCN5C[C@@]5(CC5(F)F)C6)nc4c3F)c12 [Example 32, 4-(4-((1R,5S)-3,8-diazabicyclo[3.2.1]octan-3-yl)-2-(((1S,7a'S)-2,2-difluorodihydro-1′H,3′H-spiro[cyclopropan-1,2′-pyrrolizin]-7a′(5′H)-yl)methoxy)-8-fluoropyridino[4,3-d]pyrimidin-7-yl)-2-amino-6-fluorobenzo[b]thiophen-3-carbonitrile] | 483 nM | 21 nM | – | – |
| Fc1c(-c2c(C(F)(F)F)ccc3[nH]ncc23)ncc2c(N3CC4CCC(C3)N4)nc(OC[C@@]34CCCN3C[C@@]3(CC3(F)F)C4)nc12 [Example 33, (1S,7a'S)-7a′-(((4-((1R,5S)-3,8-diazabicyclo[3.2.1]octan-3-yl)-8-fluoro-7-(5-(trifluoromethyl)-1H-indazol-4-yl)pyridino[4,3-d]pyrimidin-2-yl)oxy)methyl)-2,2-bifluorotetrahydro-1′H,3′H-spiro[cyclopropan-1,2′-pyrrolizin]] | > 1000 nM | > 100 nM | – | – |
